What all share (assay type): functional
In assay [1] the test system is Mycobacterium tuberculosis. The experiment in a line: Antimicrobial activity against isoniazid and rifampin resistant Mycobacterium tuberculosis after 21 days at 37 degC by agar dilution drug susceptibility assay.
Assay [2] relates to Mycobacterium tuberculosis. Put plainly: Antimicrobial activity against isoniazid and rifampin resistant Mycobacterium tuberculosis after 21 days at 37 degC in presence of 1-(4-(4-(1H-pyrrol-1-yl)phenyl)piperazin-1-yl)-4-(5-(3,5-difluorobenzyl)-1-(2-fluorobenzyl)-2-oxo-1,2-dihydropyridin-3-yl)-2-hydroxybut-2-ene-1,4-dione by agar dilution drug susceptibility assay.
Assay [3] relates to Mycobacterium tuberculosis. Put plainly: Antimicrobial activity against isoniazid and rifampin resistant Mycobacterium tuberculosis assessed as ratio of MIC combination/MIC compound alone after 21 days at 37 degC in presence of 1-(4-(4-(1H-pyrrol-1-yl)phenyl)piperazin-1-yl)-4-(5-(3,5-difluorobenzyl)-1-(2-fluorobenzyl)-2-oxo-1,2-dihydropyridin-3-yl)-2-hydroxybut-2-ene-1,4-dione by agar dilution drug susceptibility assay. Background: In agar dilution the substance is mixed into plates at graded concentrations.

Assay [4] concerns Mycobacterium tuberculosis. The experiment in a line: Antimicrobial activity against isoniazid and rifampin resistant Mycobacterium tuberculosis assessed as reduction in colony forming unit after 21 days at 37 degC in presence of 1-(4-(4-(1H-pyrrol-1-yl)phenyl)piperazin-1-yl)-4-(5-(3,5-difluorobenzyl)-1-(2-fluorobenzyl)-2-oxo-1,2-dihydropyridin-3-yl)-2-hydroxybut-2-ene-1,4-dione by agar dilution drug susceptibility assay. Details: scale not given: the % may be the effect or the level left.

Assay [5] concerns Mycobacterium tuberculosis. Put plainly: Antimicrobial activity against isoniazid and rifampin resistant Mycobacterium tuberculosis after 21 days at 37 degC in presence of PA-824 by agar dilution drug susceptibility assay. The note with it: 504 h.
The test system of assay [6] is Mycobacterium tuberculosis. Put plainly: Antimicrobial activity against isoniazid and rifampin resistant Mycobacterium tuberculosis assessed as ratio of MIC combination/MIC compound alone after 21 days at 37 degC in presence of PA-824 by agar dilution drug susceptibility assay.
Assay [7] deals with Mycobacterium tuberculosis. Put plainly: Antimicrobial activity against isoniazid and rifampin resistant Mycobacterium tuberculosis assessed as reduction in colony forming unit after 21 days at 37 degC in presence of PA-824 by agar dilution drug susceptibility assay. Details: scale not given: the % may be the effect or the level left.

The term MIC denotes the lowest concentration found to suppress growth.

Molecules are shown by their SMILES. Values after ≈ are worked out from the molar mass of the structure shown. Active and inactive are the calls of the source. No cut-off for these calls is given here.

In turn, `O=C(/C=C(\O)C(=O)N1CCN(c2ccc(-n3ccnc3)cc2)CC1)c1cc(Cc2cc(F)cc(F)c2)cn(Cc2ccccc2F)c1=O` showed an MIC in assay [1] (504 h) of 6.25 µg/mL (≈ 9.56 µM).

In the case of `CN[C@@H]1[C@H](O[C@H]2[C@H](O[C@H]3[C@H](O)[C@@H](O)[C@H](N=C(N)N)[C@@H](O)[C@@H]3N=C(N)N)O[C@@H](C)[C@]2(O)C=O)O[C@@H](CO)[C@H](O)[C@H]1O`, the MIC result in assay [1] was “Active”.

With `O=[N+]([O-])c1cn2c(n1)OC[C@@H](OCc1ccc(OC(F)(F)F)cc1)C2` [PRETOMANID], the MIC in assay [1] (504 h) came to 0.126 µg/mL (≈ 0.351 µM); in assay [2], 0.031 µg/mL. In addition, in assay [3], the “fractional inhibitory concentration index (FICI)” value is given as 0.246. Moreover, the Activity in assay [4] is over 99%.

`O=C(/C=C(\O)C(=O)N1CCN(c2ccc(-n3cccc3)cc2)CC1)c1cc(Cc2ccccc2)cn(Cc2ccccc2)c1=O` gave an MIC in assay [1] (504 h) of 3.12 µg/mL (≈ 5.22 µM).

Regarding `O=C(/C=C(\O)C(=O)N1CCN(c2ccc(-n3cccc3)cc2)CC1)c1cc(Cc2cc(F)cc(F)c2)cn(Cc2ccccc2F)c1=O`, the MIC in assay [1] (504 h) was found to be 1.56 µg/mL (≈ 2.39 µM); in assay [5], 0.195 µg/mL. For the same compound, the “fractional inhibitory concentration index (FICI)” value in assay [6] came to 0.125. Further, the Activity in assay [7] was over 99%.

In assay [1] (504 h), `O=C(/C=C(\O)C(=O)N1CCN(c2ccc(-n3cccn3)cc2)CC1)c1cc(Cc2cc(F)cc(F)c2)cn(Cc2ccccc2F)c1=O` came in with an MIC of 3.12 µg/mL (≈ 4.78 µM).

The values above are taken from ChEMBL document CHEMBL3397011, “A novel molecule with notable activity against multi-drug resistant tuberculosis” (Bioorg Med Chem Lett, 2015).
